Reference: US10294202B2, “Pyrrolidinones as herbicides” (FMC Corporation, priority 2013, dated 2019)

Tests used:
galium = assay: Test A postemergence herbicide test; type: in vivo, Galium aparine
Procedure, shortened: (§1)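 Ratings compare treated with untreated plants roughly 10 days after a postemergence application made at the one- to two-leaf stage. Scoring uses 0–100, where 0 means no effect and 100 complete control.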

blackgrass = assay: Test A postemergence herbicide test; type: in vivo, Alopecurus myosuroides
Procedure, shortened: as §1

ragweed = assay: Test A pre-/postemergence herbicide test; type: in vivo, Ambrosia elatior
Procedure, shortened: (§2)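 Approximately 10 days after treatment in the greenhouse, plants were compared with untreated controls and given a 0–100 visual injury rating. Applications: preemergence directed soil spray; postemergence on 2–10 cm plants at the one- to two-leaf stage.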

morningglory = assay: Test A pre-/postemergence herbicide test; type: in vivo, Ipomoea spp.
Procedure, shortened: as §2

crabgrass, large = assay: Test A pre-/postemergence herbicide test; type: in vivo, Digitaria sanguinalis
Procedure, shortened: as §2

velvetleaf = assay: Test A pre-/postemergence herbicide test; type: in vivo, Abutilon theophrasti
Procedure, shortened: as §2

[1] = 125 g ai/ha, visual rating on 0 to 100 scale (0 no effect, 100 complete control), approx. 10 days
[2] = 500 g ai/ha, 0 to 100 scale (0 no effect, 100 complete control)
[3] = Postemergence, 125 g ai/ha, visual rating on 0 to 100 scale (0 no effect, 100 complete control), approx. 10 days
[4] = Postemergence, 500 g ai/ha, 0 to 100 scale (0 no effect, 100 complete control)
[5] = Preemergence, 125 g ai/ha, 0 to 100 scale where 0 is no effect and 100 is complete control
[6] = Preemergence, 500 g ai/ha, visual rating on 0 to 100 scale (0 no effect, 100 complete control)
[7] = 1000 g ai/ha, 0 to 100 scale (0 no effect, 100 complete control)
[8] = Postemergence, 1000 g ai/ha, 0 to 100 scale (0 no effect, 100 complete control)
[9] = Postemergence, 125 g ai/ha, 0 to 100 scale, 0 is no effect, 100 is complete control
[10] = preemergence, 500 g ai/ha, 0 to 100 scale, 0 is no effect and 100 is complete control
[11] = Postemergence, 125 g ai/ha, 0 to 100 scale, 0 no effect, 100 complete control
[12] = Preemergence, 125 g ai/ha, visual rating on 0 to 100 scale (0 no effect, 100 complete control)
[13] = preemergence, 500 g ai/ha, 0 to 100 scale
[14] = Preemergence, 1000 g ai/ha, visual rating on 0 to 100 scale (0 no effect, 100 complete control), approx. 10 days

| Structure (SMILES) | Plant response rating, Morningglory (morningglory; [4]) | Plant response rating, Crabgrass, Large (crabgrass, large; [4]) | Plant response rating, Velvetleaf (velvetleaf; [4]) | Plant response rating, Morningglory (morningglory; [11]) | Morningglory plant response rating (morningglory; [12]) | Plant response rating, Morningglory (morningglory; [13]) | Plant response rating, Crabgrass, Large (crabgrass, large; [11]) | Crabgrass, Large plant response rating (crabgrass, large; [12]) | Plant response rating, Crabgrass, Large (crabgrass, large; [13]) | Plant response rating, Velvetleaf (velvetleaf; [11]) | Velvetleaf plant response rating (velvetleaf; [12]) | Plant response rating, Velvetleaf (velvetleaf; [13]) | further results |
| --- | --- | --- | --- | --- | --- | --- | --- | --- | --- | --- | --- | --- | --- |
| O=C1NCC(c2cccc(OC(F)F)c2)C1C(=O)Nc1ccc(F)c(F)c1F (stereo not drawn) [Compound 325] |  |  |  |  |  |  |  |  |  |  |  |  | Plant response rating, Galium (galium; [1]): 50; Plant response rating, Galium (galium; [2]): 60; Plant response rating, Blackgrass (blackgrass; [1]): 50; Plant response rating, Blackgrass (blackgrass; [2]): 50; Plant response rating, Ragweed (ragweed; [3]): 20; Plant response rating, Ragweed (ragweed; [4]): 60; Plant response rating, Ragweed (ragweed; [5]): 30; Ragweed plant response rating (ragweed; [6]): 50 |
| O=C1NCC(c2cccc(C(F)(F)F)c2)C1C(=O)Nc1cccc(Cl)c1F (stereo not drawn) [Compound 316] |  |  |  |  |  |  |  |  |  |  |  |  | Plant response rating, Galium (galium; [1]): 20; Plant response rating, Galium (galium; [2]): 40; Plant response rating, Blackgrass (blackgrass; [1]): 30; Plant response rating, Blackgrass (blackgrass; [2]): 40; Plant response rating, Ragweed (ragweed; [3]): 20; Plant response rating, Ragweed (ragweed; [4]): 30; Plant response rating, Ragweed (ragweed; [5]): 20; Ragweed plant response rating (ragweed; [6]): 30 |
| O=C(Nc1ccccc1F)C1C(=S)NCC1c1cccc(C(F)(F)F)c1 (stereo not drawn) [Compound 274] |  |  |  |  |  |  |  |  |  |  |  |  | Plant response rating, Galium (galium; [7]): 0; Plant response rating, Blackgrass (blackgrass; [7]): 50; Plant response rating, Ragweed (ragweed; [3]): 0; Plant response rating, Ragweed (ragweed; [8]): 30; Plant response rating, Ragweed (ragweed; preemergence, 1000 g ai/ha, 0 to 100 scale): 20 |
| O=C1NCC(c2cccc(C(F)(F)F)c2)C1C(=O)Nc1ccc(F)c(F)c1F (stereo not drawn) [Compound 315] |  |  |  |  |  |  |  |  |  |  |  |  | Plant response rating, Galium (galium; [1]): 40; Plant response rating, Galium (galium; [2]): 50; Plant response rating, Blackgrass (blackgrass; [1]): 40; Plant response rating, Blackgrass (blackgrass; [2]): 50; Plant response rating, Ragweed (ragweed; [3]): 20; Plant response rating, Ragweed (ragweed; [4]): 40; Plant response rating, Ragweed (ragweed; [5]): 20; Ragweed plant response rating (ragweed; [6]): 30 |
| O=C1NCC(c2ccc(C(F)(F)F)c(F)c2)C1C(=O)Nc1ccccc1F (racemic) [Compound 246] | 0 | 60 | 0 |  |  |  |  |  |  |  |  |  | Plant response rating, Morningglory (morningglory; [9]): 0; Plant response rating, Morningglory (morningglory; [5]): 0; Plant response rating, Morningglory (morningglory; [10]): 0; Plant response rating, Crabgrass, Large (crabgrass, large; [9]): 50; Plant response rating, Crabgrass, Large (crabgrass, large; [5]): 90; Plant response rating, Crabgrass, Large (crabgrass, large; [10]): 90; Plant response rating, Velvetleaf (velvetleaf; [9]): 0; Plant response rating, Velvetleaf (velvetleaf; [5]): 0; Plant response rating, Velvetleaf (velvetleaf; [10]): 0 |
| CN1CC(c2ccc(C(F)(F)F)cc2)C(C(=O)Nc2ccccc2F)C1=O (stereo not drawn) [Compound 304] |  |  |  |  |  |  |  |  |  |  |  |  | Plant response rating, Galium (galium; [1]): 20; Plant response rating, Galium (galium; [2]): 60; Plant response rating, Blackgrass (blackgrass; [1]): 50; Plant response rating, Blackgrass (blackgrass; [2]): 70; Plant response rating, Ragweed (ragweed; [3]): 0; Plant response rating, Ragweed (ragweed; [4]): 20; Plant response rating, Ragweed (ragweed; [5]): 0 |
| O=C1NCC(c2ccc(F)c(C(F)(F)F)c2)C1C(=O)Nc1ccccc1C(F)(F)F (racemic) [Compound 78] | 0 | 80 | 60 | 0 | 0 | 0 | 70 | 90 | 90 | 20 | 0 | 30 |  |
| O=C1NCC(c2cc(F)c(F)c(F)c2)C1C(=O)Nc1ccccc1C(F)(F)F (racemic) [Compound 33] |  |  |  |  |  |  |  |  |  |  |  |  | Plant response rating, Morningglory (morningglory; [8]): 20; Plant response rating, Crabgrass, Large (crabgrass, large; [8]): 90; Plant response rating, Crabgrass, Large (crabgrass, large; [14]): 90; Plant response rating, Velvetleaf (velvetleaf; [8]): 20; Plant response rating, Velvetleaf (velvetleaf; [14]): 0 |
| O=C1NCC(c2cccc(C(F)(F)F)c2)C1C(=O)Nc1cccc(F)c1F (stereo not drawn) [Compound 241] | 30 | 80 | 20 |  |  |  |  |  |  |  |  |  | Plant response rating, Morningglory (morningglory; [9]): 20; Plant response rating, Morningglory (morningglory; [5]): 0; Plant response rating, Morningglory (morningglory; [10]): 0; Plant response rating, Crabgrass, Large (crabgrass, large; [9]): 70; Plant response rating, Crabgrass, Large (crabgrass, large; [5]): 90; Plant response rating, Crabgrass, Large (crabgrass, large; [10]): 90; Plant response rating, Velvetleaf (velvetleaf; [9]): 0; Plant response rating, Velvetleaf (velvetleaf; [5]): 0; Plant response rating, Velvetleaf (velvetleaf; [10]): 0 |
| O=C1NCC(c2ccc(F)c(Cl)c2)C1C(=O)Nc1cccc(F)c1F (stereo not drawn) [Compound 59] | 0 | 90 | 0 | 0 | 0 | 0 | 70 | 90 | 90 | 0 | 0 | 0 |  |
| O=C1NCC(c2cccc(Br)c2)C1C(=O)Nc1cccc(F)c1F (stereo not drawn) [Compound 64] | 0 | 80 | 30 | 0 | 0 | 0 | 80 | 80 | 90 | 0 | 0 | 0 |  |
| O=C1NCC(c2ccc(Cl)c(F)c2)C1C(=O)Nc1ccccc1F (stereo not drawn) [Compound 53] | 0 | 80 | 0 | 0 | 0 | 0 | 80 | 90 | 90 | 0 | 0 | 0 |  |
| O=C1NCC(c2cccc(Br)c2)C1C(=O)Nc1ccccc1F (stereo not drawn) [Compound 66] | 0 | 80 | 0 | 0 | 0 | 0 | 80 | 80 | 90 | 0 | 0 | 0 |  |
| O=C1NCC(c2ccc3c(c2)OC(F)(F)O3)C1C(=O)Nc1cccc(F)c1F (stereo not drawn) [Compound 62] | 0 | 90 | 0 | 0 | 0 | 0 | 80 | 90 | 90 | 0 | 0 | 0 |  |
| O=C1NCC(c2cccc(OC(F)(F)F)c2)C1C(=O)Nc1cccc(F)c1F (stereo not drawn) [Compound 68] | 0 | 90 | 20 | 0 | 0 | 0 | 90 | 90 | 90 | 20 | 0 | 0 |  |
| O=C1NCC(c2ccc(C(F)(F)F)nc2)C1C(=O)Nc1ccccc1F (racemic) [Compound 262] | 0 | 80 |  |  |  |  |  |  |  |  |  |  | Plant response rating, Morningglory (morningglory; [9]): 0; Plant response rating, Morningglory (morningglory; [5]): 0; Plant response rating, Morningglory (morningglory; [10]): 0; Plant response rating, Crabgrass, Large (crabgrass, large; [9]): 70; Plant response rating, Crabgrass, Large (crabgrass, large; [5]): 90; Plant response rating, Crabgrass, Large (crabgrass, large; [10]): 90; Plant response rating, Velvetleaf (velvetleaf; [5]): 0; Plant response rating, Velvetleaf (velvetleaf; [10]): 0 |
| Cc1ccccc1NC(=O)C1C(=O)NCC1c1cc(F)c(F)c(F)c1 (racemic) [Compound 35] |  |  |  |  |  |  |  |  |  |  |  |  | Plant response rating, Morningglory (morningglory; [8]): 0; Plant response rating, Morningglory (morningglory; [14]): 0; Plant response rating, Crabgrass, Large (crabgrass, large; [8]): 90; Plant response rating, Crabgrass, Large (crabgrass, large; [14]): 90; Plant response rating, Velvetleaf (velvetleaf; [8]): 0; Plant response rating, Velvetleaf (velvetleaf; [14]): 0 |
